Data on one compound can be found in patent US8895313B2, “Ligands for aggregated tau molecules” (Wista Laboratories Ltd., priority 2008, dated 2014).

Assay [1] has as its target T1, aggregated tau in 3T6 cells expressing htau40 (IPTG-inducible) and truncated tau (Homo sapiens, UniProt P10636).
T1 construct: express both full-length human tau protein (htau40); truncated tau (295-390, dGA); expressed in transfected cells; host or cells: murine 3T6 fibroblasts; htau40 in pOPRSVI (IPTG-inducible), dGA in pcDNA3.1 (constitutive)
Kind of assay: Tissue culture cell assay: uptake and labelling of aggregated tau. The format is cell-based, mouse. Here is the method: The aggregated tau was prepared in cell lines as described in WO02/055720. In essence, fibroblast cells (3T6) express full-length tau (“T40”) under control of an inducible promotor, and low constitutive levels of the PHF-core tau fragment (12 kD fragment). Then T40 expression is induced, it undergoes aggregation-dependent truncation within the cell, N-terminally at ˜αα295 and C-terminally at ˜αα390, thereby producing higher levels of the 12 kD PHF-core domain fragment.
The tissue culture assay uses 3T6 mouse cells engineered to express both full-length human tau protein (htau40) under the control of an inducible promoter (pOPRSVI), and to express low levels of truncated tau (295-390, dGA) under the control of a constitutive promoter (pcDNA3.1). Expression of large quantities of htau40 is induced by the addition of isopropyl β-D-1-thiogalactopyranoside (IPTG; 10-50 μM), which in turn leads to the production of additional truncated tau by a process in which aggregation and processing of the full-length tau occurs in the presence of dGA tau which acts as template. The aggregation of tau in this assay is depicted in FIG. 1.
Murine 3T6 fibroblast cells were grown to ˜80% confluency in a 10-cm dish, before splitting into 2×24 well plates, and allowed to grow for a further 24 hrs when IPTG was added. After overnight incubation, the medium was removed and the cells were washed with PBS.
A similar experiment was performed with cells seeded on to cover slips in a 24-well plate. After 24 hrs, the cells were incubated with ligand for 20 hrs in the presence or absence of IPTG (100 μM) i.e. induced or uninduced.

Assay [2] has as its target T2, aggregated tau in brain sections of line 66 mice (full-length human tau, P301S/G335D) (Homo sapiens, UniProt P10636, G652D/P618S).
T2 construct: transgenic mice expressing full-length human tau; from tissue; host or cells: fixed brain sections of transgenic line 66 mice (paraffin-embedded or frozen)
Description: Ligand staining of paraffin-embedded brain sections. On the set-up: species or system mouse. The source says: The binding of ligands to aggregated tau in tissue sections or cells containing such aggregates can also be used to test whether such compounds can (i) enter cells, and (ii) bind to aggregated tau. In addition, it is a suitable means to test fluorescent ligands that cannot be tested in the fluorescent competition binding assay.
Brain tissue sections were used from transgenic mice expressing full-length human tau, that contained a double mutation P301S/G335D (line 66 mouse). Aggregated tau pathology accumulates in neurons in these animals. Fixed tissue was used either after embedding in paraffin or after freezing in the presence of cryoprotectant.
Sections from the brains of mice expressing full-length tau, that contain a double mutation P301S/G335D, associated with frontotemporal […] were cut 5 μm thick. Sections were dewaxed and rehydrated into water. Inherent fluorescence was quenched with sodium permanganate followed by sodium borohydride. Primulin or SK2033-30 was added in 50% ethanol. In a second experiment, SK2033-30 was added in 50% ethanol containing 10% DMSO. Sections were compared with those stained by standard immunohistochemistry using mAb 7/51, an antibody recognising truncated tau repeat domain (Novak et al. (1993); Wischik et al. (1996)).

T2 sequence (P10636 1-441 isoform P10636-8 P301S/G335D): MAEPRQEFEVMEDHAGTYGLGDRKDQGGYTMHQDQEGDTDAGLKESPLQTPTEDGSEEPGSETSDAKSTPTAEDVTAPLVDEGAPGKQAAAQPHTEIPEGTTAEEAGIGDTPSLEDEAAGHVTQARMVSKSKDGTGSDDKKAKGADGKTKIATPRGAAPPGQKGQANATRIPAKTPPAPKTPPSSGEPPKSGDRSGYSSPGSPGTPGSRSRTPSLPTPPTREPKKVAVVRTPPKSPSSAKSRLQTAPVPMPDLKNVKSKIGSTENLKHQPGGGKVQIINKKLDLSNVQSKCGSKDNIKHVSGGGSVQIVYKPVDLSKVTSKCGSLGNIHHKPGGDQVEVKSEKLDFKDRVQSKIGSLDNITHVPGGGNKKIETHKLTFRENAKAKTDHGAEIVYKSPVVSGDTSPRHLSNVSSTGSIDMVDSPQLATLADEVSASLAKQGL

As to `Cc1ccc2nc(-c3ccc(/C=C/c4ccc(N(C)C)cc4)cc3)sc2c1` [SK2033-30, 2-{4-[2-(4-Dimethylaminophenyl)-vinyl]-phenyl}-6-methylbenzothiazole], in assay [1] (IPTG-induced cells), the “uptake and labelling of aggregated tau in induced cells” value is “demonstrated”. The “binding to aggregated tau within cells, fluorescence microscopy” value in assay [1] (induced cells) is listed as “selective binding”. In addition, the “staining pattern in paraffin-embedded line 66 mouse brain section” value in assay [2] (ligand added in 50% ethanol containing 10% DMSO) was “showed a staining pattern similar to that observed with primulin or antibody”. Moreover, the “uptake/staining in paraffin-embedded line 66 mouse brain section” value in assay [2] (ligand added in 50% ethanol, compared with primulin or antibody immunostaining) is listed as “little evidence for its uptake into cells”.
